Results reported in US20100227827A1, “METHOD OF INCREASING TRYPTOPHAN AND NICOTINAMIDE LEVELS IN VIVO” (priority 2006, published 2010).

Tested on: serum protein thiols
Assay: Serum protein thiols as in vivo anti-oxidant indicator
Parameters: species or system human
Settings: for Increase in serum protein thiols (ratio): after to before (baseline)
From the text: The following detailed description was designed to standardize the estimation of the in vivo level of serum protein thiols that have been used previously to estimate DNA repair capacity. When a blood sample is collected and the serum isolated, then the level of serum protein thiols is an estimate of the concentration between thiols and disulfides existing in protein structures that are in turn equilibrated to the existing oxidant environment in vivo. Thus, serum protein thiol analyses are an in vivo estimate of the antioxidant status of an individual that is in turn regulated by DNA repair.
A stock solution of the colorimetric agent 5,5′-dithio-bis-(2-nitrobenzoic acid (DTNB), was prepared using: 9.5 mg/ml solid DTNB, 0.1 M K2HPO4, and 17.5 mM EDTA. pH was adjusted to 7.5 and then diluted to desired volume. Working DTNB solution was prepared by diluting DTNB stock solution 1:50 with saline. Solutions of L-cysteine were prepared and a standard curve was constructed desirably be in the 0-100 μM range. Stock solutions were diluted as required and absorbance was measured using 96-well flat-bottom microtiter plate. 50 μL-cysteine solution with 200 μl working DTNB solution was placed per well. […]
A DTNB blank (50 μl saline+200 μl DTNB) was made. Absorbance values were made at 412 nm with a microtiter plate scanner spectrophotometer. The average of every concentration was calculated and DTNB blank was subtracted from every value. Using a plot of concentration (x-axis) vs. absorbance (y-axis) by comparison with standard cysteine solutions the cysteine concentration was determined.
A saturated ammonium sulfate solution was prepared. […] Absorbance in microtiter plate scanner set at 412 nm was measured making sure that bubbles in the well are avoided.
The average was calculated for the DTNB blank and the saline blank. […]
Then the corrected serum value was subtracted from the corrected sample value. This value was the final serum thiol value expressed as absorbance at […]. […]
Altogether this was a 20 fold dilution (4×5=20). […] Thiols were hereby measured in nmoles/0.72 ml.

SMILES: O=C(O)[C@]1(O)C[C@@H](O)[C@@H](O)[C@H](O)C1 [Aqua Bimini™, quinic acid ammonium chelate]
- Increase in serum protein thiols (ratio) (3000 mg/day for 36 days): 1.26
- Increase in serum protein thiols (ratio) (HL 1500 mg/day for 36 days): 1.22
- reduced thiols (—SH) in serum proteins (supplementation 1500 or 3000 mg/day, treatment and follow-up versus baseline): significant increase
